# From patent US9040106B2, “Pharmaceutical composition for preventing or treating diabetic erectile dysfunction comprising C3G or extract of mulberry containing C3G” (CATHOLIC UNIVERSITY INDUSTRY-ACADEMIC COOPERATION FOUNDATION, priority 2011, dated 2015)
# Legend:
# Assay type in all cases: in vivo, Sprague-Dawley rats
# [1] = Serum glucose of streptozotosin-induced diabetic rats; conditions: DM+C3G group
# Experimental: (§1) Thirty-six 12-wk-old male Sprague-Dawley rats were treated under a protocol approved by the Institutional Animal Care and Use Committee (CUMC-2010-0137-02) and handled according to NIH guidelines. Rats were divided equally into three groups (n=12 in each): control, diabetes (DM), and diabetes with C3G concentration materials treatment (DM+C3G). All rats in the DM and DM+C3G groups received a single intraperitoneal injection of streptozotosin (50 mg/kg). Blood glucose and body weight were monitored weekly and significant diabetes (serum glucose >250 mg/dl) was confirmed in all rats within 1 wk. The diabetic serum level was maintained throughout the experiment. Four weeks after the induction of diabetes, rats in the DM+C3G group were treated with daily oral C3G (10 mg/kg) dissolved in water for 8 weeks. After the 12 weeks, intracavernosal pressure measurement (ICP) was performed, and after ICP measurement, the skin-denuded middle part of the penile shafts was cut and fixed overnight in 10% formalin, washed, and stored in 70% alcohol at 4° C. until processed for paraffin-embedded tissue sectioning (5 μm). Tissue was stored at −80° C. until processing.
# [2] = test system: rat model of diabetic erectile dysfunction; test: Intracavernosal pressure measurement on electrical stimulation of the cavernosal nerve; conditions: diabetic rats, daily oral C3G 10 mg/kg for 8 weeks
# Experimental: as §1
# Rats were anaesthetized with an intraperitoneal injection of 0.2 mL tiletamine (Zoletil®). […] Both mean arterial pressure (MAP) and ICP were continuously monitored during electrical stimulation. […]
# [3] = test system: smooth muscle and collagen in corporal tissue; test: Masson's trichrome staining of cavernosal tissue
# Experimental: as §1
# After ICP, the skin denuded middle part of the penile shafts were fixed overnight in 10% formalin, washed, and stored in 70% alcohol at 4° C. until processed for paraffin-embedded tissue sectioning (5 μm). The cavernosal tissue was obtained for the Masson's trichrome staining. After staining, the color distribution of the muscle tissue was approximated by using the Adobe Photoshop CS 8.0. After the entire color distribution of the image was calculated, we selected the muscle tissue distribution, expressed as the color red. There were somewhat standard deviations in our calculation because of color overlays and ambiguity of the color spectrum of the muscle tissues.
# [4] = test system: apoptosis in corporal tissue; test: TUNEL assay for apoptosis; conditions: diabetic rats, daily oral C3G 10 mg/kg for 8 weeks; DM 39.6±4.6, control 15.3±3.0
# Experimental: as §1, with “After the 12 weeks, intracavernosal pressure measurement (ICP) was performed, and after ICP measurement, the skin-denuded middle part of the penile shafts was cut and fixed overnight in 10% formalin, washed, and stored in 70% alcohol at 4° C. until processed for paraffin-embedded tissue sectioning (5 μm). Tissue was stored at −80° C. until processing.” left out
# To assess apoptosis in the corpora tissues, the terminal deoxynucleotidyl transferase mediated dUTP nick end labeling (TUNEL) assay was performed using Apop Tag In Situ Apoptosis Detection Kits (Millipore Co., MA, US). […] The number of cells positive for the TUNEL assay was counted and the difference among the groups was assessed. For the count of cells positive for the TUNEL assay, 5 sites were selected randomly from a slide of each group, and the number of cells positive for the TUNEL assay was counted as the average of 5 sites under a light microscope at 400× magnification.
# eNOS = eNOS protein expression, Western blot of corporal tissue; conditions: C3G treatment group versus DM group, corrected against actin
# Experimental: as §1, with “After the 12 weeks, intracavernosal pressure measurement (ICP) was performed, and after ICP measurement, the skin-denuded middle part of the penile shafts was cut and fixed overnight in 10% formalin, washed, and stored in 70% alcohol at 4° C. until processed for paraffin-embedded tissue sectioning (5 μm). Tissue was stored at −80° C. until processing.” left out
# (§2) The homogenized buffer solution was placed on ice for 15 min and centrifuged at 4° C. for 13,000 rpm for 15 minutes. […] 30 μg of the quantitative protein was denatured at 95° C. for 5 min and electrophoresis was performed on a 12% discontinuous sodium dodecylsulfate-polyacrylamide gel (SDS-PAGE). […] Chemiluminescence was detected using enhanced chemiluminescence Western blotting detection reagents and densitometric assessment of the bands on the autoradiogram was performed using Bio1D software (version 97; Vilber Lourmat, France). […]
# nNOS = nNOS protein expression, Western blot of corporal tissue; conditions: C3G treatment group versus DM group, corrected against actin
# Experimental: as §1, with “After the 12 weeks, intracavernosal pressure measurement (ICP) was performed, and after ICP measurement, the skin-denuded middle part of the penile shafts was cut and fixed overnight in 10% formalin, washed, and stored in 70% alcohol at 4° C. until processed for paraffin-embedded tissue sectioning (5 μm). Tissue was stored at −80° C. until processing.” left out
# as §2
# SOD = SOD protein expression, Western blot of corporal tissue; conditions: DM group treated with C3G
# Experimental: as §1, with “After the 12 weeks, intracavernosal pressure measurement (ICP) was performed, and after ICP measurement, the skin-denuded middle part of the penile shafts was cut and fixed overnight in 10% formalin, washed, and stored in 70% alcohol at 4° C. until processed for paraffin-embedded tissue sectioning (5 μm). Tissue was stored at −80° C. until processing.” left out
# The homogenized buffer solution was placed on ice for 15 min and centrifuged at 4° C. for 13,000 rpm for 15 minutes. […] 30 μg of the quantitative protein was denatured at 95° C. for 5 min and electrophoresis was performed on a 12% discontinuous sodium dodecylsulfate-polyacrylamide gel (SDS-PAGE). […] Chemiluminescence was detected using enhanced chemiluminescence Western blotting detection reagents and densitometric assessment of the bands on the autoradiogram was performed using Bio1D software (version 97; Vilber Lourmat, France).
# [5] = test system: 8-OHdG in corpora tissues; test: Measurement of 8-OHdG (oxidative stress) by ELISA; conditions: diabetic rats, daily oral C3G 10 mg/kg for 8 weeks; DM 0.917±0.247, normal 0.140±0.13
# Experimental: as §1, with “After the 12 weeks, intracavernosal pressure measurement (ICP) was performed, and after ICP measurement, the skin-denuded middle part of the penile shafts was cut and fixed overnight in 10% formalin, washed, and stored in 70% alcohol at 4° C. until processed for paraffin-embedded tissue sectioning (5 μm). Tissue was stored at −80° C. until processing.” left out
# Oxidative stress in corpora tissues was evaluated by quantifying the levels of 8-hydroxy-2-deoxyguanosine (8-OHdG) as oxidatively modified DNA. […] Levels of 8-OHdG were measured with a DNA oxidation kit (Highly Sensitive 8-OHdG Check ELISA; Japan Institute for the Control of Aging, Fukuroi, Japan) according to the manufacturer's protocol. […] After the final color was developed with the addition of 3,3′,5,5′-tetramethylbenzidine, absorbance was measured at 450 nm. Tissue sample concentration was calculated from a standard curve and was corrected for DNA concentration.
# [6] = C3G treatment group versus DM group
smiles,measurement,setting,value
"OC[C@H]1O[C@@H](Oc2cc3c(O)cc(O)cc3[o+]c2-c2ccc(O)c(O)c2)[C@H](O)[C@@H](O)[C@@H]1O [C3G, Cyanidin-3-O-β-d-glucopyranoside]",Serum glucose,[1]; 4 wk after diabetes induction (start of daily oral C3G 10 mg/kg),462 ± 90 mg/dL
same,Serum glucose,"[1]; 8 wk, daily oral C3G 10 mg/kg from week 4",448 ± 143 mg/dL
same,Serum glucose,"[1]; 12 wk, daily oral C3G 10 mg/kg for 8 weeks",469 ± 163 mg/dL
same,Serum glucose,[1]; Pre-DM induction (before C3G treatment),141 ± 13 mg/dL
same,ICP/MAP ratio,"[2]; DM group 0.32 ± 0.06, control 0.77 ± 0.05",0.55 ± 0.11
same,Peak ICP,"[2]; cavernosal nerve stimulation, DM group 35.4 ± 4.5, control 83.3 ± 1.9",58.0 ± 4.6
same,collagen content of corpora tissues,[3]; [6],collagen content decreased
same,smooth muscle content of corpora tissues,[3]; [6],smooth muscle content increased
same,muscle/collagen ratio,"[3]; diabetic rats, daily oral C3G 10 mg/kg for 8 weeks, DM 10.6±4.6, control 27.3±3.0",21.8±1.7
same,mean apoptotic index ± standard deviation (TUNEL),[4],21.3±1.7
same,"eNOS protein level (western blot, densitogram)",eNOS,levels increased
same,"nNOS protein level (western blot, densitogram)",nNOS,levels increased
same,SOD expression (western blot),SOD,expressed more in the DM group treated with C3G than in the control group
same,8-OHdG in the corpora tissue by ELISA,[5],0.626±0.423
